Measured values taken from PubChem BioAssay AID248 (DTP/NCI, 2004).
Inconclusive results and toxic doses are left out. No stated cut-off is given here; in the data, active means T/C of 150% or more; inactive means T/C below 125%.

Tested on: L1210 leukemia ip in BDF1 mice, survival T/C
Assay: NCI In Vivo Anticancer Drug Screen. Data for tumor model L1210 Leukemia (intraperitoneal) in B6D2F1 (BDF1) mice
Details: endpoint: mean survival time, higher = longer survival
Method in brief: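 Transplanted-tumor mice were given test agent; controls received vehicle only. Survival readings from the two groups were divided (treated over control).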

[1] = dose: 100.0 mg/kg/injection, schedule: Q01DX009 (ip), vehicle: Klucel (hydroxypropylcellulose) (HPC)
[2] = dose: 200.0 mg/kg/injection, schedule: Q01DX009 (ip), vehicle: Klucel (hydroxypropylcellulose) (HPC)
[3] = dose: 400.0 mg/kg/injection, schedule: Q01DX009 (ip), vehicle: Klucel (hydroxypropylcellulose) (HPC)

Measured: T/C

O=c1[nH]c2c(N3CCOCC3)cccc2o1
inactive: dose: 25.0 mg/kg/injection, schedule: Q04DX002 (ip), vehicle: Klucel (hydroxypropylcellulose) (HPC) 93 % of control | dose: 50.0 mg/kg/injection, schedule: Q04DX002 (ip), vehicle: Klucel (hydroxypropylcellulose) (HPC) 97 % of control | dose: 100.0 mg/kg/injection, schedule: Q04DX002 (ip), vehicle: Klucel (hydroxypropylcellulose) (HPC) 97 % of control

Oc1ccc[n+](CCCl)c1
inactive: dose: 6.25 mg/kg/injection, schedule: Q01DX015 (ip), vehicle: saline 96 % of control | dose: 12.5 mg/kg/injection, schedule: Q01DX015 (ip), vehicle: saline 100 % of control | dose: 25.0 mg/kg/injection, schedule: Q01DX015 (ip), vehicle: saline 104 % of control | dose: 50.0 mg/kg/injection, schedule: Q01DX015 (ip), vehicle: saline 100 % of control | dose: 100.0 mg/kg/injection, schedule: Q01DX015 (ip), vehicle: saline 100 % of control | dose: 200.0 mg/kg/injection, schedule: Q01DX015 (ip), vehicle: saline 96 % of control | dose: 300.0 mg/kg/injection, schedule: Q01DX015 (ip), vehicle: saline 100 % of control

Cc1ccc(/C([O-])=C(\C(=S)Nc2cccc(Cl)c2)[n+]2ccccc2)cc1
inactive: [1] 104 % of control | [2] 95 % of control | [3] 108 % of control

C#CCOCC(O)C[As](=O)(O)c1cccc(Cl)c1 (stereo unspecified)
inactive: dose: 1.56 mg/kg/injection, schedule: Q04DX003 (ip), vehicle: saline with Tween-80 92 % of control | dose: 3.13 mg/kg/injection, schedule: Q04DX003 (ip), vehicle: saline with Tween-80 104 % of control | dose: 6.25 mg/kg/injection, schedule: Q04DX003 (ip), vehicle: saline with Tween-80 104 % of control

COc1ccc(C2(C)OC(=O)c3ccccc32)c2ccccc12 (stereo unspecified)
inactive: dose: 100.0 mg/kg/injection, schedule: Q01DX001 (ip), vehicle: saline with Tween-80 94 % of control | dose: 200.0 mg/kg/injection, schedule: Q01DX001 (ip), vehicle: saline with Tween-80 100 % of control | dose: 400.0 mg/kg/injection, schedule: Q01DX001 (ip), vehicle: saline with Tween-80 87 % of control

O=[N+]([O-])c1cc(Br)cnc1Br
inactive: dose: 100.0 mg/kg/injection, schedule: Q01DX001 (ip), vehicle: Klucel (hydroxypropylcellulose) (HPC) 100 % of control | [1] 101 % of control | dose: 200.0 mg/kg/injection, schedule: Q01DX001 (ip), vehicle: Klucel (hydroxypropylcellulose) (HPC) 105 % of control | [2] 96 % of control | dose: 400.0 mg/kg/injection, schedule: Q01DX001 (ip), vehicle: Klucel (hydroxypropylcellulose) (HPC) 105 % of control | [3] 103 % of control

COc1ccccc1CN1CCCN(Cc2ccccc2OC)C1c1cccc(OC)c1O
inactive: dose: 50.0 mg/kg/injection, schedule: Q01DX001 (ip), vehicle: saline 95 % of control | dose: 100.0 mg/kg/injection, schedule: Q01DX001 (ip), vehicle: saline 101 % of control | dose: 200.0 mg/kg/injection, schedule: Q01DX001 (ip), vehicle: saline 93 % of control | dose: 400.0 mg/kg/injection, schedule: Q01DX001 (ip), vehicle: saline 93 % of control

O=C(O)c1ccccc1C(=O)OC1C=CC2CCC1C2 (stereo unspecified)
inactive: dose: 100.0 mg/kg/injection, schedule: Q01DX001 (ip), vehicle: carboxymethylcellulose (CMC) 112 % of control | dose: 200.0 mg/kg/injection, schedule: Q01DX001 (ip), vehicle: carboxymethylcellulose (CMC) 90 % of control | dose: 400.0 mg/kg/injection, schedule: Q01DX001 (ip), vehicle: carboxymethylcellulose (CMC) 96 % of control

C[n+]1ccccc1CCC(=O)Nc1ccccc1
inactive: dose: 100.0 mg/kg/injection, schedule: Q01DX009 (ip), vehicle: saline with Tween-80 87 % of control

CO/N=C1\C(C)(C)C(C)(C)C(C)(C)C1(C)SS(=O)(=O)O (stereo unspecified)
inactive: dose: 100.0 mg/kg/injection, schedule: Q04DX002 (ip), vehicle: saline 90 % of control | dose: 200.0 mg/kg/injection, schedule: Q04DX002 (ip), vehicle: saline 101 % of control | dose: 400.0 mg/kg/injection, schedule: Q04DX002 (ip), vehicle: saline 107 % of control
